Laboratory results taken from paper PMC5973995 (Clinical Pharmacokinetics, 2017).
Read-outs that look alike come from different tables or passages of the source.

Tests used:
CYP1A2 = biological target: T1, CYP1A2 (Homo sapiens, UniProt P05177); assay: In-vitro CYP inhibition in pooled human liver microsomes; format: in vitro ADME; conditions: data on file
T1 sequence (P05177 1-516): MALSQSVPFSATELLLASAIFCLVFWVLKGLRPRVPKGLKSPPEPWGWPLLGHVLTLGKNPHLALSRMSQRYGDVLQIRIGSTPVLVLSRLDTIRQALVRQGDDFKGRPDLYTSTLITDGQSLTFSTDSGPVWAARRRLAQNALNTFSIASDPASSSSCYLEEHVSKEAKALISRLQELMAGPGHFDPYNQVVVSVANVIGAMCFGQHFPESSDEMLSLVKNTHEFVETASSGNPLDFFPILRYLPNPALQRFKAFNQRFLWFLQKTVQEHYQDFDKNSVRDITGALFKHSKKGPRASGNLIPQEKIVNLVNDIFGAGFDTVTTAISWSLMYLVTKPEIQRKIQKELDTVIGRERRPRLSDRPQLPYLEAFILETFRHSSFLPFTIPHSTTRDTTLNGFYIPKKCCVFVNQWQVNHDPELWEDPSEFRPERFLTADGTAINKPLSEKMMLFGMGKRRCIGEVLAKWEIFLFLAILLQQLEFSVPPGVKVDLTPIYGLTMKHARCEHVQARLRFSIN

[1] = once-daily 10 mg; 21 young individuals; cited from earlier work
[2] = 10 or 40 mg once daily; ICH E14 definitions; cited from earlier work
[3] = cited from earlier work
CYP2A6 = biological target: T2, CYP2A6 (Homo sapiens, UniProt P11509); assay: In-vitro CYP inhibition in pooled human liver microsomes; format: in vitro ADME; conditions: data on file
T2 sequence (P11509 1-494): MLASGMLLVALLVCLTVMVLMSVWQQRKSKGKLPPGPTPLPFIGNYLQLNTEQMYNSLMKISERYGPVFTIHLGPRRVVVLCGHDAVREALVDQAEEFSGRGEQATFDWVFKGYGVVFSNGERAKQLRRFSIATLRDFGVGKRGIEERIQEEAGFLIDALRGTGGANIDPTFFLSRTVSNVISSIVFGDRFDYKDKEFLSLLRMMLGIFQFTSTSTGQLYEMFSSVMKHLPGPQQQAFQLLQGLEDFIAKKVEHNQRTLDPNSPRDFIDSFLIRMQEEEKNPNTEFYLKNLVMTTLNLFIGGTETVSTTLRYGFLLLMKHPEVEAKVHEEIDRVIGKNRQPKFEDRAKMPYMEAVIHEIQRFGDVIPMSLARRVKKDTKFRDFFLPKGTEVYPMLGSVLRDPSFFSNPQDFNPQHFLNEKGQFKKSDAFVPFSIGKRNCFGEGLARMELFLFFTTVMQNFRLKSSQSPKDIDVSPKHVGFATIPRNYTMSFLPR

CYP2C19 = CYP2C19 (Homo sapiens, UniProt P33261); assay: as above; format: in vitro ADME
[4] = Mass balance, single oral dose of 50 mg 14C-labeled vortioxetine; format: in vivo, human; conditions: single oral dose 50 mg 14C-labeled; data on file
CYP2C9 = CYP2C9 (Homo sapiens, UniProt P11712); assay: In-vitro CYP inhibition in pooled human liver microsomes; format: in vitro ADME
CYP2D6 = CYP2D6 (Homo sapiens, UniProt P10635); assay: as above; format: in vitro ADME; conditions: data on file
[5] = cited from earlier work; remark: listed apart in the source
[6] = cited from earlier work; remark: listed apart in the source
Distribution coefficient = format: physicochemical; conditions: data on file
[7] = format: in vivo, human; conditions: for AUC(0-t) / Tmax / Vd/F / half-life: both, human, plasma, oral; for AI (accumulation index = AUC(0–tau) at steady state/AUC(0–24) day 1) / CL/F / C max: healthy subjects, mean (% CV); for C max: steady state
[8] = cited from earlier work; remark: listed apart in the source
plasma protein = conditions: healthy volunteers and hepatic or renal impairment; cited from earlier work
[9] = cited from earlier work; remark: listed apart in the source
[10] = simulation, 20 mg at steady state
[11] = pooled human liver microsomes, CYP isozyme-specific probe substrates, data on file
[12] = bupropion 150 mg twice daily with vortioxetine 10 mg once daily
[13] = fluconazole 200 mg once daily with vortioxetine 10 mg
[14] = ketoconazole 400 mg once daily with vortioxetine 10 mg
[15] = rifampin 600 mg daily with vortioxetine 20 mg
[16] = within 360 h, single 50-mg 14C dose

CYP2C19, sequence (P33261 whole entry): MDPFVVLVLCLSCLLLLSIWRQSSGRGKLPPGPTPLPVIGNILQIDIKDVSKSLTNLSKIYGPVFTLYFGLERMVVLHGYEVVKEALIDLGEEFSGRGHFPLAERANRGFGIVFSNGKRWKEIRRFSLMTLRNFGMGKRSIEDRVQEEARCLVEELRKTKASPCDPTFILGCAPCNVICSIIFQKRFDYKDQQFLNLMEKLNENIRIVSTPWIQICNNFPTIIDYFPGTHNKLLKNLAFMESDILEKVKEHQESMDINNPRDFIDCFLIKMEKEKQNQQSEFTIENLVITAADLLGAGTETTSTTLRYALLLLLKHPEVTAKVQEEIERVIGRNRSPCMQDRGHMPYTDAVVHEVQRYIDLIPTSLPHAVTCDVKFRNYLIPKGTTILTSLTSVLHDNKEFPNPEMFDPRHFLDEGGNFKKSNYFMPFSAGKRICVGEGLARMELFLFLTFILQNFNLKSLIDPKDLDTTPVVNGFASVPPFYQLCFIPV
CYP2C9, sequence (P11712 whole entry): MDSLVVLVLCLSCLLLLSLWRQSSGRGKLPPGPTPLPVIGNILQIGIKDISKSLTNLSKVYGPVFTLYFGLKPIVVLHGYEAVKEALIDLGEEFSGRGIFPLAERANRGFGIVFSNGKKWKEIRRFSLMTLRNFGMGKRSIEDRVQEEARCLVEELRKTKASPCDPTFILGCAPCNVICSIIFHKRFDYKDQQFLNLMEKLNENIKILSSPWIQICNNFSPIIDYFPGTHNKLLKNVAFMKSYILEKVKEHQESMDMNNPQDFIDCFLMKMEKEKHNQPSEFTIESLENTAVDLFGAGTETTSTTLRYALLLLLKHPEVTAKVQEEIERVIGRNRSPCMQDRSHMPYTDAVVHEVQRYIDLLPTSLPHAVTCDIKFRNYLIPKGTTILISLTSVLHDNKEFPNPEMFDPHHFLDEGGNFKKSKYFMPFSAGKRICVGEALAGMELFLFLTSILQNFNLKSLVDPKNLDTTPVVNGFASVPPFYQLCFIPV
CYP2D6, sequence (P10635 whole entry): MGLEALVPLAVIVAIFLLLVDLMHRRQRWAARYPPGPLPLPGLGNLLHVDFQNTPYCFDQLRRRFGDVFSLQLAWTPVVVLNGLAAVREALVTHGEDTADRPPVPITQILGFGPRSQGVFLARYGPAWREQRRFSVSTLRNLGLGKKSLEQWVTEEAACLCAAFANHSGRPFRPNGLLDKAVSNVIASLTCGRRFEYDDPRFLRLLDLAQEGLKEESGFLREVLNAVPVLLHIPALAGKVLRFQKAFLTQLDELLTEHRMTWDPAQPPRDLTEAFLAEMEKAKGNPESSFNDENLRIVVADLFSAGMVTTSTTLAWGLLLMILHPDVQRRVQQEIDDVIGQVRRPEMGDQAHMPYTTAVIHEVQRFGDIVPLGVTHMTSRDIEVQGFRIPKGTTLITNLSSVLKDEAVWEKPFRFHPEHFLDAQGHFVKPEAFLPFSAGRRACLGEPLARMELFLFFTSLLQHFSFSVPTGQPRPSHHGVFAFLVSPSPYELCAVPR

SMILES: Br.Cc1ccc(Sc2ccccc2N2CCNCC2)c(C)c1 [vortioxetine, 1-[2-(2,4-dimethyl-phenylsulfanyl)-phenyl]-piperazine, hydrobromide]
- inhibitory in-vitro effect on CYP1A2 (CYP1A2): no inhibitory in-vitro effect
- impairment of driving, cognitive function, or psychomotor skills [1]: not to impair
- effect on cardiac repolarization [2]: unlikely to affect cardiac repolarization
- estimated CL/F ([3]; CYP2D6 EMs): 34.1 L/h
- estimated CL/F ([3]; CYP2D6 IMs): 26.6 L/h
- estimated CL/F ([3]; CYP2D6 PMs): 18.1 L/h
- estimated CL/F ([3]; CYP2D6 UMs): 52.9 L/h
- oral clearance, CYP2C19 EMs relative to PMs [3]: 1.4 times
- oral clearance, CYP2D6 EMs higher than PMs [3]: approximately two-fold
- exposure in CYP2D6 PMs relative to CYP2D6 EMs ([3]; expected): twice as high
- population mean AUC lower in CYP2D6 UMs than EMs ([3]; expected): 35.5%
- estimated minimal lag time ([3]; oral): 0.781 h
- mean oral clearance ([3]; phase I population-PK analysis): 33 L/h
- AUC(0–24) higher, 75-year-old vs 40-year-old [3, 10]: 40%
- AUC(0–24) lower, 18-year-old vs 40-year-old [3, 10]: 15%
- C max higher, 75-year-old vs 40-year-old [3, 10]: 38%
- C max lower, 18-year-old vs 40-year-old [3, 10]: 14%
- C max and AUC(0–24) higher, 155 cm vs 175 cm person ([3]; simulation, 20 mg): 5%
- C max and AUC(0–24) lower, 187 cm vs 175 cm person ([3]; simulation, 20 mg): 4%
- inhibitory in-vitro effect on CYP2A6 (CYP2A6): no inhibitory in-vitro effect
- ratio of maximum plasma concentration of inhibitor (I) and Ki (CYP2C19; CYP2C19, much smaller than): smaller than 0.1
- inhibitory effect on CYP2C19 (CYP2C19; [11]): inhibitory effect
- red blood cell distribution [4]: negligible
- ratio of maximum plasma concentration of inhibitor (I) and Ki (CYP2C9; CYP2C9, much smaller than): smaller than 0.1
- inhibitory effect on CYP2C9 (CYP2C9; [11]): inhibitory effect
- inhibitory in-vitro effect on CYP2D6 (CYP2D6): no inhibitory in-vitro effect
- AUC(0–24) increase of vortioxetine [5, 12]: 2.3 fold
- C max increase of vortioxetine [5, 12]: 2.1 fold
- AUC(0–t) and C max of vortioxetine with a Pgp inhibitor ([5]; co-administered with ketoconazole): marginally increased
- effect on exposure to vortioxetine ([5]; co-administration of aspirin): no effect
- effect on exposure to vortioxetine ([5]; co-administration of ethanol): no effect
- effect on exposure to vortioxetine ([5]; co-administration of omeprazole): no effect
- AUC(0–t) increase of vortioxetine [5, 13]: 46%
- C max increase of vortioxetine [5, 13]: 15%
- AUC(0–t) increase of vortioxetine [5, 14]: 30%
- C max increase of vortioxetine [5, 14]: 26%
- AUC(0–t) decrease of vortioxetine [5, 15]: 72%
- C max decrease of vortioxetine [5, 15]: 51%
- plasma protein binding, renally compromised vs healthy controls [6]: no difference
- C max lower than healthy controls ([6]; end-stage renal disease, single dose 10 mg (Fig. 2)): 27%
- predicted exposure, difference from healthy control group ([6]; linear regression on creatinine clearance): ≤ 30%
- AUC(0–t) higher than healthy controls ([6]; mild renal impairment, single dose 10 mg): 9%
- C max difference from healthy controls ([6]; mild, moderate, or severe renal impairment, single dose 10 mg): ≤ 11%
- AUC(0–t) higher than healthy controls ([6]; moderate renal impairment, single dose 10 mg): 16%
- AUC(0–t) higher than healthy controls ([6]; severe renal impairment, single dose 10 mg): 11%
- distribution coefficient (octanol/water) (Distribution coefficient; pH 3, 25 °C): 2.2
- distribution coefficient (octanol/water) (Distribution coefficient; pH 11, 25 °C): 4.7
- AUC(0-t) ([7]; 5 mg): 175 ng·h/mL
- Tmax ([7]; 5 mg): 7 h
- Vd/F ([7]; 5 mg): 2500 L
- half-life ([7]; 5 mg): 60 h
- AUC(0-t) ([7]; 10 mg): 344 ng·h/mL
- Tmax ([7]; 10 mg): 8 h
- Vd/F ([7]; 10 mg): 3290 L
- half-life ([7]; 10 mg): 58.8 h
- AUC(0-t) ([7]; 20 mg): 646 ng·h/mL
- Tmax ([7]; 20 mg): 8 h
- Vd/F ([7]; 20 mg): 3370 L
- half-life ([7]; 20 mg): 64.2 h
- AI (accumulation index = AUC(0–tau) at steady state/AUC(0–24) day 1) ([7]; multiple doses 5 mg): 5.17 (27)
- CL/F ([7]; multiple doses 5 mg): 32.96 (33) L/h
- C max ([7]; multiple doses 5 mg): 8.69 (42) ng/mL
- AI (accumulation index = AUC(0–tau) at steady state/AUC(0–24) day 1) ([7]; multiple doses 10 mg): 4.87 (34)
- CL/F ([7]; multiple doses 10 mg): 38.27 (60) L/h
- C max ([7]; multiple doses 10 mg): 17.92 (44) ng/mL
- AI (accumulation index = AUC(0–tau) at steady state/AUC(0–24) day 1) ([7]; multiple doses 20 mg): 5.68 (38)
- CL/F ([7]; multiple doses 20 mg): 40.11 (47) L/h
- C max ([7]; multiple doses 20 mg): 33.03 (38) ng/mL
- accumulation index (AUC(0–24) ratio steady state / single dose) ([7]; multiple doses of 5–20 mg (Table 2)): 5–6
- hepatic clearance, contribution to CL/F [8]: 99%
- renal clearance of parent drug, contribution to CL/F [8]: < 1%
- bound to plasma protein (plasma protein): Approximately 99%
- unbound drug (plasma protein): 1%
- parent drug detected in the feces ([9]; single 50-mg 14C dose, feces only): 1.5%
- drug concentration in plasma relative to whole blood ([9]; single oral dose 50 mg 14C-labeled): double
- drug-related material recovered in feces [9, 16]: 26%
- drug-related material recovered in urine [9, 16]: 59%
- drug-related material recovered in urine and feces [9, 16]: approximately 85%
